Reference: patent US20130143869A1, “USE OF A CATIONIC AMPHIPHILIC DRUG FOR THE PREPARATION OF A FORMULATION FOR THE REDUCTION OF SUBCUTANEOUS ADIPOSE TISSUE” (Merz Pharma GmbH & CO. KGaA, priority 2010, published 2013)
Counter-ions that a name gives are not always drawn. Blank lines part the entries; values can stand above or below the molecule they belong to.

Columns and labels:
[1] = test system: human adipocyte cells; assay: Cytotoxicity assay: metabolic activity (resazurin conversion) of human adipocytes; type: cell-based
Method: (§1) HWP were obtained in passage two and differentiated in vitro to mature adipocytes. Briefly, cells were initially cultured in preadipocyte growth medium at 37° C. and 5% CO2 to 70-80% confluency. Then, cells were seeded at 40,000 cells/ml into 96-well flat bottom tissue culture plates and incubated overnight to allow attachment. Differentiation was initiated by changing the medium to preadipopcyte differentiation medium for an additional 72 hrs. After differentiation was induced, the medium was replaced by adipocyte nutrition medium that was refreshed every 2-3 days over a period of 14 days until termination of differentiation. Differentiation status was checked via nile red staining of control cells.
The test items 1 to 8 were prepared according to Table 1 to yield respective stock solutions. Said stock solutions were further diluted in assay media to obtain the double concentrated working solutions, which were subsequently diluted 1:2 in the final assay. […] Deoxycholate Na was selected as “reference compound”.
(§2) For the cytotoxicity assays in this study pre-adipocytes were seeded at 40,000 cells/ml into a 96-well microtiter flat bottom plate. The test items were prepared in separate plates starting with the double concentrated maximal test concentration followed by a 1:2 serial dilution (Chloroquine and Fluoxetine 1:3) and then added to the cells. The test items were tested at 6 replicates/concentration. Each plate included negative controls (media plus solvent, 6 replicates), a drug interference control (all concentrations, duplicates), a background control (14 replicates), a positive (=cytotoxic) control (6 replicates doxorubicin, 1 μM final) and a positive control for maximal LDH-release (2 replicates, 2% Triton-x 100 final).
(§3) Relative cell viability was determined after 48 hrs exposure based on metabolic activity (i.e. resazurin conversion). Using a Victor^3 1420 Multilabel Counter, the resazurin conversion to the fluorescent resorufin by metabolically active cells was recorded at 560Ex/590Em. Membrane integrity was measured after 6 hrs and 48 hrs and the enzymatic activity of released LDH in the cell supernatant after 30 min of incubation at 492 nmabsorption/690 nmreference by a spectrophotometer. The volume withdrawn from the cultures for the LDH-assay was not replaced to keep cells in a less disturbed environment. The assay was conducted in a multiplexed format.
In order to derive meaningful IC50 values from the primary data, the entire biological window of activity ranging from 0% to 100% viability should be covered and the resolution has to be sufficient. To improve data quality, the serial dilution factor used in previous experiments was reduced to a 1:2 and 1:3 dilution. […] IC50 (half maximal inhibitory concentration, calculated via Sigma Plot 10) values were determined for each test substance 1 to 8.
(§4) The effects on cytotoxicity in human adipocyte cells of a further 9 compounds were tested. The experimental set-up was identical to the one in example 1.

[2] = test system: human adipocyte cells; assay: Membrane integrity: LDH release from human adipocytes (LDH assay); type: cell-based; settings: for IC50: read-out: IC50 48 hrs LDH, Example 2, 48 hrs; for Rel. max. LDH release [%] 48 hrs: Example 1, 48 hrs, relative to Triton-x 100 maximal LDH release
Method: as §1, §2, §3
For the dose-response relationship, absolute absorption (OD treated wells−background) was plotted against the test item concentrations representing LDH leakage from the cells. For a better estimation of the test items' potential influencing the membrane integrity, relative, maximal LDH release in percent (see Table 2) was also calculated according to the following formula: […]
as §4

[3] = test system: Human white adipocytes; assay: Apoptosis/necrosis detection, Annexin V-FITC/PI flow cytometry; type: cell-based; settings: for apoptosis/necrosis induction in human adipocytes (in words): 5, 24, 48 hrs, concentrations as in Table 4
Source text: The apoptotic program is characterized by certain morphologic features. Loss of plasma membrane asymmetry is a well established indicator for apoptotic cells. In apoptotic cells, the membrane phospholipid phosphatidylserine (PS) is translocated from the inner to the outer leaflet of the plasma membrane, thereby exposing PS to the external environment. In general, this PS translocation is preceded by caspase activation. Annexin V labelled with FITC is a Ca^2+ dependent phospholipid-binding protein with high affinity for PS and binds to cells with externalized PS. Cells stained with Annexin V*FITC are therefore considered in an early apoptotic stage.
Staining with Annexin V-FITC is typically used in conjunction with a vital dye such as propidium iodide (PI) to allow discrimination between early apoptotic and necrotic cells. Necrotic dying cells are PI positive only. Cells that are viable are Annexin V and PI negative; cells that entered apoptosis are Annexin V positive and PI negative and cells that are in post apoptotic and/or necrotic phase are both Annexin V and PI positive.
Human white adipocytes that had been differentiated in vitro from pre-adipocytes as describe above were used. Measurements were performed after 5 hrs to catch early apoptotic/necrotic events and after 24 hrs and 48 hrs for later stages. Naringenin at 500 μM (reported to induce apoptosis in adipocytes) was used as positive control and media plus solvent was used as negative control. Each compound was tested in three different concentrations. […] Two more concentrations, one below and one above the IC50 were added.
Flow cytometry was performed with a dual laser FC500. After completion of the staining procedure, tubes were grouped into a FC500 carousel for semi-automated data acquisition. Cells were first acquired in “Setup” mode to tune the parameters FS, SS, FL1 and FL2. After completion of the setup, baseline compensation was switched on and cells were acquired. Cells were acquired without life-gate but using FS threshold to exclude debris. All cells were acquired using individually corrected settings.
After completion of data acquisition, analysis was done using the CXP software. If necessary, software-based post acquisition compensation was performed to fine-correct for fluorescence overlap not adjusted for during the acquisition phase. Quadrant markers were set based on the negative controls.

[4] = test system: subcutaneous fat-tissue; settings: rats
[5] = Homo sapiens, Adipocyte, read-out: IC50 48 hrs Resazurin, Example 2, 48 hrs
[6] = 1 mg/mL, 300 μL s.c. Day 1, 7, 28, histology day 29

IC50 ([2]; Homo sapiens, Adipocyte): ~31.2 µM
SMILES: Fc1ccc([C@@H]2CCNC[C@H]2COc2ccc3c(c2)OCO3)cc1 [Paroxetine]
IC50 [1, 5]: 39.3 µM

IC50 [2]: ~379 µM
SMILES: C[C@H](CCC(=O)[O-])[C@H]1CC[C@H]2[C@@H]3CC[C@@H]4C[C@H](O)CC[C@]4(C)[C@H]3C[C@H](O)[C@]12C.[Na+] [Test substance 8, Deoxycholate Na]
IC50 ([1]; read-out: IC50 48 hrs Resazurin, Example 2, 48 hrs, listed as Deoxycholate): ~616 µM
IC50 ([1]; read-out: IC50 48 hrs Resazurin, Example 2, 48 hrs, listed as deoxycholate): 616 µM
IC50 ([1]; read-out: IC50 (metabolic activity after 48 hrs), Example 1, 48 hrs exposure, resazurin): 446 µM
Rel. max. LDH release [%] 48 hrs [2]: 98.0%

IC50 [2]: ~7.4 µM
SMILES: Clc1ccc(C(Cn2ccnc2)OCc2ccsc2Cl)c(Cl)c1 (stereo not shown) [Thioconazole]
IC50 ([1]; read-out: IC50 48 hrs Resazurin, Example 2, 48 hrs): 10.5 µM

IC50 ([2]; Homo sapiens, Adipocyte): ~22.2 µM
SMILES: COc1ccccc1OCCNCC(O)COc1cccc2[nH]c3ccccc3c12 (stereo not shown) [Carvedilol]
IC50 [1, 5]: 28.4 µM

IC50 ([2]; Homo sapiens, Adipocyte): ~20.3 µM
SMILES: OCCN1CCN(CCCN2c3ccccc3Sc3ccc(Cl)cc32)CC1 [Perphenazine]
IC50 [1, 5]: 25 µM

SMILES: O=C1C[C@@H](c2ccc(O)cc2)Oc2cc(O)cc(O)c21 [Naringenin]
Early Apoptosis [A-V*/PI*] ([3]; 500 μM, 5 hrs): 16
Necrosis/ Late Apoptosis [A-V*/PI*] ([3]; 500 μM, 5 hrs): 0.8
Normal [A-V*/PI] ([3]; 500 μM, 5 hrs): 83.2
Early Apoptosis [A-V*/PI*] ([3]; 500 μM, 24 hrs): 14.1
Necrosis/ Late Apoptosis [A-V*/PI*] ([3]; 500 μM, 24 hrs): 4.1
Normal [A-V*/PI] ([3]; 500 μM, 24 hrs): 81.8
Early Apoptosis [A-V*/PI*] ([3]; 500 μM, 48 hrs): 12.1
Necrosis/ Late Apoptosis [A-V*/PI*] ([3]; 500 μM, 48 hrs): 5.7
Normal [A-V*/PI] ([3]; 500 μM, 48 hrs): 81.2
apoptosis/necrosis induction in human adipocytes (in words) [3]: small but clear increase in apoptotic/necrotic adipocytes over time

SMILES: CNCCC(Oc1ccc(C(F)(F)F)cc1)c1ccccc1 (stereo not shown) [Test substance 4, Fluoxetine HCl]
IC50 ([1]; Homo sapiens, Adipocyte, read-out: IC50 (metabolic activity after 48 hrs), Example 1, 48 hrs exposure, resazurin): 52 µM
Rel. max. LDH release [%] 48 hrs [2]: 101.0%
primary mode of cell death [3]: fast and strong apoptosis induction
Early Apoptosis [A-V*/PI*] ([3]; 40 μM, 5 hrs): 26.9
Necrosis/ Late Apoptosis [A-V*/PI*] ([3]; 40 μM, 5 hrs): 0
Necrosis/ Late Apoptosis [A-V*/PI*] ([3]; 40 μM, 24 hrs): 2.6
Normal [A-V*/PI] ([3]; 40 μM, 24 hrs): 49.9
Early Apoptosis [A-V*/PI*] ([3]; 40 μM, 48 hrs): 22.7
Necrosis/ Late Apoptosis [A-V*/PI*] ([3]; 40 μM, 48 hrs): 7.7
Early Apoptosis [A-V*/PI*] ([3]; 60 μM, 5 hrs): 58.5
Necrosis/ Late Apoptosis [A-V*/PI*] ([3]; 60 μM, 5 hrs): 1.3
Normal [A-V*/PI] ([3]; 60 μM, 5 hrs): 45.2
Early Apoptosis [A-V*/PI*] ([3]; 60 μM, 24 hrs): 78.7
Necrosis/ Late Apoptosis [A-V*/PI*] ([3]; 60 μM, 24 hrs): 5.5
Normal [A-V*/PI] ([3]; 60 μM, 24 hrs): 14.7
Early Apoptosis [A-V*/PI*] ([3]; 60 μM, 48 hrs): 37.9
Necrosis/ Late Apoptosis [A-V*/PI*] ([3]; 60 μM, 48 hrs): 19.8
Normal [A-V*/PI] ([3]; 60 μM, 48 hrs): 42.3
cells apoptotic ([3]; 80 μM, 5 h): more than 50%
Necrosis/ Late Apoptosis [A-V*/PI*] ([3]; 80 μM, 5 hrs): 1.6
Normal [A-V*/PI] ([3]; 80 μM, 5 hrs): 47
Early Apoptosis [A-V*/PI*] ([3]; 80 μM, 24 hrs): 41.9
Necrosis/ Late Apoptosis [A-V*/PI*] ([3]; 80 μM, 24 hrs): 44.1
Normal [A-V*/PI] ([3]; 80 μM, 24 hrs): 14
Necrosis/ Late Apoptosis [A-V*/PI*] ([3]; 80 μM, 48 hrs): 42.2
Normal [A-V*/PI] ([3]; 80 μM, 48 hrs): 2.7
apoptosis/necrosis induction in human adipocytes (in words) [3]: rapidly induced strong apoptosis
degree of histological changes at administration sites (subcutaneous connective and/or adipose tissue) [4, 6]: minimal or mild in degree
edema at administration sites [4, 6]: minimal or mild
fibrosis at administration sites [4, 6]: minimal or mild
haemorrhage at administration sites [4, 6]: minimal or mild
infiltrates of granulocytes at administration sites [4, 6]: minimal
infiltrates of mononuclear cells at administration sites [4, 6]: minimal to moderate
single cell death of inflammatory cells and/or connective tissue at administration sites [4, 6]: minimal
adipocytolysis (concluded from inflammatory reaction) ([4]; repetitive s.c. injection): causes adipocytolysis
